Usually melting point stands for the temperature, or range, at which the solid turns liquid.

SMILES strings stand for the structures.

In the case of `Cc1c(C(=O)C2C(=O)C3CCC(C3)C2=O)ccc(S(C)(=O)=O)c1C1=NOC(CCl)C1` (stereo not shown) [Compound 2.2, 3-[2-Methyl-3-(5-chloromethyl-4,5-dihydroisoxazol-3-yl)-4-methyl-sulfonylbenzoyl]bicyclo[3.2.1]octane-2,4-dione], the melting point was 98 to 103 °C.

The record behind these values is patent US6599860B1, “Herbicidal halogenalkyl-substituted 3-(4,5-dihydroisoxazol-3-yl)-benzoyl-cyclohexenones” (BASF Aktiengesellschaft, priority 1999, dated 2003).
